The NIST ThermoML archive (doi:10.1016/j.tca.2007.02.022)
“And” between values parts separate entries of the source, which are not always exact repeats. Equal values may be shown once.

Assays:
[1] = Molar enthalpy of transition or fusion; conditions: Crystal
[2] = Crystal
[3] = molar heat capacity at constant pressure; conditions: 101.33 kPa

OC[C@@H](O)[C@H](O)[C@@H](O)CO [xylitol]
Conditions | Molar enthalpy of transition or fusion | Triple point temperature
[1] | 8.05 kcal/mol and 7.95 kcal/mol | –
[2] | – | 367.52 K and 369.06 K

[3]
Conditions | molar heat capacity at constant pressure [J/K/mol]
80 K, Crystal | 63.67
80.07 K, Crystal | 62.71
83.61 K, Crystal | 65.01
85 K, Crystal | 66.43
86.53 K, Crystal | 67.25
89.49 K, Crystal | 69.29
90 K, Crystal | 69.62
92.49 K, Crystal | 71.54
95 K, Crystal | 73.13
95.54 K, Crystal | 73.71
98.51 K, Crystal | 75.94
100 K, Crystal | 76.86
101.4 K, Crystal | 78.2
104.34 K, Crystal | 80.53
105 K, Crystal | 80.73
107.35 K, Crystal | 82.78
110 K, Crystal | 84.68
110.28 K, Crystal | 84.97
113.27 K, Crystal | 87.33
115 K, Crystal | 88.65
116.32 K, Crystal | 89.39
119.31 K, Crystal | 91.73
120 K, Crystal | 92.61
122.25 K, Crystal | 93.79
125 K, Crystal | 96.54
125.24 K, Crystal | 96.15
128.3 K, Crystal | 98.38
130 K, Crystal | 100.4
131.31 K, Crystal | 100.5
134.27 K, Crystal | 102.7
135 K, Crystal | 104.2
137.29 K, Crystal | 104.8
140 K, Crystal | 108
140.38 K, Crystal | 106.6
143.41 K, Crystal | 109
145 K, Crystal | 111.7
146.39 K, Crystal | 111.2
149.42 K, Crystal | 113.3
150 K, Crystal | 115.3
152.51 K, Crystal | 115.5
155 K, Crystal | 118.9
155.56 K, Crystal | 117.7
158.57 K, Crystal | 119.8
160 K, Crystal | 122.4
161.56 K, Crystal | 121.9
164.6 K, Crystal | 123.9
165 K, Crystal | 126
167.69 K, Crystal | 126
170 K, Crystal | 129.5
170.76 K, Crystal | 129.7
173.84 K, Crystal | 132.3
175 K, Crystal | 133
176.88 K, Crystal | 134
179.99 K, Crystal | 136
180 K, Crystal | 136.6
183.16 K, Crystal | 138
185 K, Crystal | 140.1
186.3 K, Crystal | 140.4
190 K, Crystal | 143.7
192.5 K, Crystal | 144.2
195 K, Crystal | 147.3
195.64 K, Crystal | 146.3
198.85 K, Crystal | 148.5
200 K, Crystal | 151
202.03 K, Crystal | 150.3
205 K, Crystal | 154.7
205.18 K, Crystal | 152.4
208.33 K, Crystal | 155.1
210 K, Crystal | 158.4
211.45 K, Crystal | 157.1
214.63 K, Crystal | 159.5
215 K, Crystal | 162.1
217.88 K, Crystal | 161.4
220 K, Crystal | 165.9
221.1 K, Crystal | 163.8
224.3 K, Crystal | 165.8
225 K, Crystal | 169.6
227.46 K, Crystal | 168.2
230 K, Crystal | 173.4
230.62 K, Crystal | 170.6
233.78 K, Crystal | 172.5
235 K, Crystal | 177.1
236.94 K, Crystal | 174
240 K, Crystal | 180.8
240.13 K, Crystal | 176.1
243.21 K, Crystal | 178.2
245 K, Crystal | 184.4
246.34 K, Crystal | 180.8
249.48 K, Crystal | 182.2
250 K, Crystal | 188
252.61 K, Crystal | 184.3
255 K, Crystal | 191.5
255.78 K, Crystal | 186.3
258.93 K, Crystal | 188.6
260 K, Crystal | 195
262.07 K, Crystal | 191
265 K, Crystal | 198.3
265.19 K, Crystal | 193.2
268.29 K, Crystal | 195.2
270 K, Crystal | 201.6
271.44 K, Crystal | 197.5
274.65 K, Crystal | 199.6
275 K, Crystal | 204.8
277.84 K, Crystal | 201.9
280 K, Crystal | 208
281.02 K, Crystal | 204.7
284.19 K, Crystal | 207.3
285 K, Crystal | 211.1
287.39 K, Crystal | 210.2
290 K, Crystal | 214.2
290.63 K, Crystal | 212.7
293.83 K, Crystal | 215.1
295 K, Crystal | 217.4
297.06 K, Crystal | 217.8
298.15 K, Crystal | 219.4
300 K, Crystal | 220.7
300.4 K, Crystal | 220.6
303.7 K, Crystal | 223.9
305 K, Crystal | 224.2
310 K, Crystal | 227.9
310.42 K, Crystal | 229.1
314.19 K, Crystal | 232.7
315 K, Crystal | 232.1
318.33 K, Crystal | 237.1
320 K, Crystal | 236.9
322.65 K, Crystal | 240.3
325 K, Crystal | 242.4
326.89 K, Crystal | 244.7
330 K, Crystal | 248.8
331.21 K, Crystal | 251.3
335 K, Crystal | 256.3
335.57 K, Crystal | 258.1
339.95 K, Crystal | 261.8
340 K, Crystal | 265.3
344.29 K, Crystal | 261.9
345 K, Crystal | 275.9
348.52 K, Crystal | 262.4
350 K, Crystal | 288.6
352.73 K, Crystal | 271.3
355 K, Crystal | 303.6
356.88 K, Crystal | 286.2
360 K, Crystal | 321.5
360.92 K, Crystal | 323.9
370 K, Liquid | 420.6
372.89 K, Liquid | 422
375 K, Liquid | 423.4
376.72 K, Liquid | 424.4
380 K, Liquid | 426.2
380.91 K, Liquid | 427
385 K, Liquid | 429
385.11 K, Liquid | 428.8
390 K, Liquid | 431.8
